Measured values: ChEMBL document CHEMBL1201862, “PubChem BioAssay data set” (2004)
Blank lines part the entries; values can stand above or below the compound they belong to. The source made the active and inactive calls.

Legend:
Format in all cases: functional
[1] = target: Tyrosine-protein kinase ABL1 (Homo sapiens, UniProt P00519)
[2] = target: Vascular endothelial growth factor receptor 1 (Homo sapiens, UniProt P17948);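 also: measured within a kinome-wide profiling panel, FLT1 as the panel member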
[3] = target: Receptor-type tyrosine-protein kinase FLT3 (Homo sapiens, UniProt P36888);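 also: FLT3 was tested as one member of a kinome-wide kinase panel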
[4] = target: Tyrosine-protein kinase Blk (Homo sapiens, UniProt P51451);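 also: obtained as one member of a kinome-wide kinase assay panel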
[5] = target: Vascular endothelial growth factor receptor 3 (Homo sapiens, UniProt P35916);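 also: value from a kinome-wide profiling panel, with FLT4 as the panel member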
[6] = target: Tyrosine-protein kinase Lck (Homo sapiens, UniProt P06239);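 also: lck was assayed as one member of a kinase panel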
Sequence of Tyrosine-protein kinase Lck (P06239 whole entry): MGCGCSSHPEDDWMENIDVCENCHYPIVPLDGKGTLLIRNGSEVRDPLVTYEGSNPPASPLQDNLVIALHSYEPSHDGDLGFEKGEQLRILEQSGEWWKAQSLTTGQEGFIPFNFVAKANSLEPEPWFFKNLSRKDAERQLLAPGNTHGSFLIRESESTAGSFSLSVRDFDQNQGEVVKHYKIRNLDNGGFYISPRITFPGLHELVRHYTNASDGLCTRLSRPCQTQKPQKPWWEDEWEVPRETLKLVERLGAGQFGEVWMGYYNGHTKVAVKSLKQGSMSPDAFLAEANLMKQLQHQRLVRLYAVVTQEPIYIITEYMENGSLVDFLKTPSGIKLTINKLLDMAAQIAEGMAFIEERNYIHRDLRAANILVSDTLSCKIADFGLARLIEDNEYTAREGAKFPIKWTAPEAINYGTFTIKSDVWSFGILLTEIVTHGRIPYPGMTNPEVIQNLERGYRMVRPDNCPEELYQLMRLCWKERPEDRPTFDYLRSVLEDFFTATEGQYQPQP

[7] = target: Proto-oncogene tyrosine-protein kinase Src (Homo sapiens, UniProt P12931);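 also: SRC entry within a kinome-wide kinase profiling panel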
[8] = target: Tyrosine-protein kinase Lyn (Homo sapiens, UniProt P07948);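 also: lyn as one member of a kinase panel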
Sequence of Tyrosine-protein kinase Lyn (P07948 whole entry): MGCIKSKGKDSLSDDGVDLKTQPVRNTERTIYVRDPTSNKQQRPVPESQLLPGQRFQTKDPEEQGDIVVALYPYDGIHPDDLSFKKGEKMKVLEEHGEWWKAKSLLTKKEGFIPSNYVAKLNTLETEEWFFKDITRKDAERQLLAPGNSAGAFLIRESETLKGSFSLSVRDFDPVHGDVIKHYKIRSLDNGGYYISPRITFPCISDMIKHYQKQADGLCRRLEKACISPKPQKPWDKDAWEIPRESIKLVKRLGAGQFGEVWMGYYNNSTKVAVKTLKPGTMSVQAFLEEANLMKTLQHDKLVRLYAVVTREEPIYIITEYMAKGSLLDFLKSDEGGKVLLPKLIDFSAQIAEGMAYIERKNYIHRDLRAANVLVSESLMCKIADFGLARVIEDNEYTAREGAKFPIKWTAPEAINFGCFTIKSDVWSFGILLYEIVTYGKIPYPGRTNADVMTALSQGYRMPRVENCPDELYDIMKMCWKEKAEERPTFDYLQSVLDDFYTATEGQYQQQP

[9] = target: Macrophage colony-stimulating factor 1 receptor (Homo sapiens, UniProt P07333);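 also: value comes from the Navigating the Kinome screening panel, CSF1R member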
[10] = target: Vascular endothelial growth factor receptor 2 (Homo sapiens, UniProt P35968)
[11] = target: Tyrosine-protein kinase Fyn (Homo sapiens, UniProt P06241)
Sequence of Tyrosine-protein kinase Fyn (P06241 whole entry): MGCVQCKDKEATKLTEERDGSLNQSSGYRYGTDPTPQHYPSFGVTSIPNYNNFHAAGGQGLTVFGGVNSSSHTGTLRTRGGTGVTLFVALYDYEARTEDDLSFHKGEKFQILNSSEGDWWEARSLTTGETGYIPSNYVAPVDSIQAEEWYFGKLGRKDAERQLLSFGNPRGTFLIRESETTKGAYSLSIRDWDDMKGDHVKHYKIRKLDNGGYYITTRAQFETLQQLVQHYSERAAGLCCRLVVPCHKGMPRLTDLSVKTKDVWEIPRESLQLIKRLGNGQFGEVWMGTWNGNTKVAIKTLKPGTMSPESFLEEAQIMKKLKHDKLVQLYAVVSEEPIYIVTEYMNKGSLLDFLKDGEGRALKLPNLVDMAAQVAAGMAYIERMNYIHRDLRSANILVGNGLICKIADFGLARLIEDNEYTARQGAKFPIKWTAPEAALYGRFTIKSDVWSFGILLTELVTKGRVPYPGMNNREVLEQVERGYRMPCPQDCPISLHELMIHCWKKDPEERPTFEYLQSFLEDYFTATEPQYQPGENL

[12] = target: Mast/stem cell growth factor receptor Kit (Homo sapiens, UniProt P10721);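 also: KIT entry within a kinase panel assay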
[13] = target: Serine/threonine-protein kinase pim-1 (Homo sapiens, UniProt P11309)
Sequence of Serine/threonine-protein kinase pim-1 (P11309 whole entry): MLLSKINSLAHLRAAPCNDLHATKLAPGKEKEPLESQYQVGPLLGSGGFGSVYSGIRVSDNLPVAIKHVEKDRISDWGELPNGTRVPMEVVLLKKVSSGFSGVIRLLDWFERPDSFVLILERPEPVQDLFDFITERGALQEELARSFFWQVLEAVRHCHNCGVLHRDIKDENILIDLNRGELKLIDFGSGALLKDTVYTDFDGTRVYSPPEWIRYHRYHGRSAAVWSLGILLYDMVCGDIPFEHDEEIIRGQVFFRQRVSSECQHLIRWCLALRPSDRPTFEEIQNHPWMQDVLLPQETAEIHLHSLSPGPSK

[14] = target: Mitogen-activated protein kinase 8 (Homo sapiens, UniProt P45983);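 also: value comes from one member of a kinome-wide kinase profiling panel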
[15] = target: Dual specificity protein kinase CLK4 (Homo sapiens, UniProt Q9HAZ1)
Sequence of Dual specificity protein kinase CLK4 (Q9HAZ1 whole entry): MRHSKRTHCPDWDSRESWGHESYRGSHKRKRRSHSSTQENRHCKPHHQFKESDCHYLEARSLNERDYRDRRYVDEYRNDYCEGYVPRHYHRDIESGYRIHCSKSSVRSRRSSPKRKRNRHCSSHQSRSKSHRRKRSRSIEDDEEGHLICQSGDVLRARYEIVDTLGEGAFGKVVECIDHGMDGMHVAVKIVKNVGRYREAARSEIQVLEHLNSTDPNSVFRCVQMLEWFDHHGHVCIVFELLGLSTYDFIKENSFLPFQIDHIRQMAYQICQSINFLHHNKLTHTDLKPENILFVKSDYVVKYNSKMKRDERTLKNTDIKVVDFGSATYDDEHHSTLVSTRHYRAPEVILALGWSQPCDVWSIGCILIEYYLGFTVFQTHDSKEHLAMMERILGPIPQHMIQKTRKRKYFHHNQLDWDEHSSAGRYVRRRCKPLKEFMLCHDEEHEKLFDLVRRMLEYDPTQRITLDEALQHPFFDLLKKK

[16] = target: Serine/threonine-protein kinase Chk1 (Homo sapiens, UniProt O14757);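 also: measured as one member of a kinome-wide kinase profiling panel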
[17] = target: cAMP-dependent protein kinase catalytic subunit PRKX (Homo sapiens, UniProt P51817)
Sequence of cAMP-dependent protein kinase catalytic subunit PRKX (P51817 whole entry): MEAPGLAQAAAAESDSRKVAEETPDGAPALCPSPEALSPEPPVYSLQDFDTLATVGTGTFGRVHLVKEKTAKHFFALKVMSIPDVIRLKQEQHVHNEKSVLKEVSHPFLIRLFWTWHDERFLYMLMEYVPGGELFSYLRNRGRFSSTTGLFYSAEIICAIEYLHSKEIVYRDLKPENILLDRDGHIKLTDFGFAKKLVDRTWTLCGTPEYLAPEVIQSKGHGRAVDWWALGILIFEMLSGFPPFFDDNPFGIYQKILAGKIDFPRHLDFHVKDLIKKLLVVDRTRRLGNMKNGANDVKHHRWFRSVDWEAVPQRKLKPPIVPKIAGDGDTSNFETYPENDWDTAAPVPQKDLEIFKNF

[18] = target: Inhibitor of nuclear factor kappa-B kinase subunit epsilon (Homo sapiens, UniProt Q14164); experiment: Navigating the Kinome. Panel member name: IKBKE
Sequence of Inhibitor of nuclear factor kappa-B kinase subunit epsilon (Q14164 whole entry): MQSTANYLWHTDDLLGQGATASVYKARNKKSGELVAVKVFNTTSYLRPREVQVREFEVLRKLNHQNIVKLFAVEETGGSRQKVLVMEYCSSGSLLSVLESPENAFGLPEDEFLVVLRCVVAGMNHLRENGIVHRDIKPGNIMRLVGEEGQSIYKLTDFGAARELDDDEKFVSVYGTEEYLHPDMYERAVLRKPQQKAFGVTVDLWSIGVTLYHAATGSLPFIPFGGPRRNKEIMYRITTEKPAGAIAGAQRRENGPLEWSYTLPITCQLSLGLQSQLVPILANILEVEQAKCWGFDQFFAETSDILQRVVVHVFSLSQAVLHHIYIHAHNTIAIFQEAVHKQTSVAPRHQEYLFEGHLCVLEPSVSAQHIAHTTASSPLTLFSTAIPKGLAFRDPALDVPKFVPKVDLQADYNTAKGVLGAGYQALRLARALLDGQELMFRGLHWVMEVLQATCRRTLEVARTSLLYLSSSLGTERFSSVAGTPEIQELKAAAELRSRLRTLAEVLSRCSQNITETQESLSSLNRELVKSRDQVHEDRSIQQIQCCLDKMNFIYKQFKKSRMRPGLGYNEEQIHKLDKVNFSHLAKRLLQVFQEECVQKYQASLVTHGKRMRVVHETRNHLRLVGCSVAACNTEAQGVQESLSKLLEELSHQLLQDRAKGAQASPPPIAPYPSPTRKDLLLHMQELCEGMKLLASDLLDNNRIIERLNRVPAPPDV

[19] = target: T1, Neuropeptides B/W receptor type 1 (Homo sapiens, UniProt P48145); experiment: GPR7 antagonist potency, late-stage follow-up, cell-based, fluorescence, dose response, set 5 (AID 588566)
T1 sequence (P48145 whole entry): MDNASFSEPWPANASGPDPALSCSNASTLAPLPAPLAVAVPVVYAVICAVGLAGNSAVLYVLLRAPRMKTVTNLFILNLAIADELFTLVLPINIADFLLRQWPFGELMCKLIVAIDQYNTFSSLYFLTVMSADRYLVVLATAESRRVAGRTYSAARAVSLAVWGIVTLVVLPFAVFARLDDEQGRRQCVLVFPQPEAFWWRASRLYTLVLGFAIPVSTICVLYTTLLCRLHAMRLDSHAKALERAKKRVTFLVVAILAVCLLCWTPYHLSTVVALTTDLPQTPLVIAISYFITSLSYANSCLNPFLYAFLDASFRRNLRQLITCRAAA

[20] = target: Melanin-concentrating hormone receptor 1 (Homo sapiens, UniProt Q99705); experiment: Late-stage fluorescence-based counterscreen for antagonists of the G-protein coupled receptor 7 (GPR7): cell-based dose response assay to identify antagonists of the melanin-concentrating hormone receptor 1 (MCHR1) Set 5.
[21] = target: ALK tyrosine kinase receptor (Homo sapiens, UniProt Q9UM73);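 also: ALK tested as one member of a kinase panel screen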
Sequence of ALK tyrosine kinase receptor (Q9UM73 whole entry): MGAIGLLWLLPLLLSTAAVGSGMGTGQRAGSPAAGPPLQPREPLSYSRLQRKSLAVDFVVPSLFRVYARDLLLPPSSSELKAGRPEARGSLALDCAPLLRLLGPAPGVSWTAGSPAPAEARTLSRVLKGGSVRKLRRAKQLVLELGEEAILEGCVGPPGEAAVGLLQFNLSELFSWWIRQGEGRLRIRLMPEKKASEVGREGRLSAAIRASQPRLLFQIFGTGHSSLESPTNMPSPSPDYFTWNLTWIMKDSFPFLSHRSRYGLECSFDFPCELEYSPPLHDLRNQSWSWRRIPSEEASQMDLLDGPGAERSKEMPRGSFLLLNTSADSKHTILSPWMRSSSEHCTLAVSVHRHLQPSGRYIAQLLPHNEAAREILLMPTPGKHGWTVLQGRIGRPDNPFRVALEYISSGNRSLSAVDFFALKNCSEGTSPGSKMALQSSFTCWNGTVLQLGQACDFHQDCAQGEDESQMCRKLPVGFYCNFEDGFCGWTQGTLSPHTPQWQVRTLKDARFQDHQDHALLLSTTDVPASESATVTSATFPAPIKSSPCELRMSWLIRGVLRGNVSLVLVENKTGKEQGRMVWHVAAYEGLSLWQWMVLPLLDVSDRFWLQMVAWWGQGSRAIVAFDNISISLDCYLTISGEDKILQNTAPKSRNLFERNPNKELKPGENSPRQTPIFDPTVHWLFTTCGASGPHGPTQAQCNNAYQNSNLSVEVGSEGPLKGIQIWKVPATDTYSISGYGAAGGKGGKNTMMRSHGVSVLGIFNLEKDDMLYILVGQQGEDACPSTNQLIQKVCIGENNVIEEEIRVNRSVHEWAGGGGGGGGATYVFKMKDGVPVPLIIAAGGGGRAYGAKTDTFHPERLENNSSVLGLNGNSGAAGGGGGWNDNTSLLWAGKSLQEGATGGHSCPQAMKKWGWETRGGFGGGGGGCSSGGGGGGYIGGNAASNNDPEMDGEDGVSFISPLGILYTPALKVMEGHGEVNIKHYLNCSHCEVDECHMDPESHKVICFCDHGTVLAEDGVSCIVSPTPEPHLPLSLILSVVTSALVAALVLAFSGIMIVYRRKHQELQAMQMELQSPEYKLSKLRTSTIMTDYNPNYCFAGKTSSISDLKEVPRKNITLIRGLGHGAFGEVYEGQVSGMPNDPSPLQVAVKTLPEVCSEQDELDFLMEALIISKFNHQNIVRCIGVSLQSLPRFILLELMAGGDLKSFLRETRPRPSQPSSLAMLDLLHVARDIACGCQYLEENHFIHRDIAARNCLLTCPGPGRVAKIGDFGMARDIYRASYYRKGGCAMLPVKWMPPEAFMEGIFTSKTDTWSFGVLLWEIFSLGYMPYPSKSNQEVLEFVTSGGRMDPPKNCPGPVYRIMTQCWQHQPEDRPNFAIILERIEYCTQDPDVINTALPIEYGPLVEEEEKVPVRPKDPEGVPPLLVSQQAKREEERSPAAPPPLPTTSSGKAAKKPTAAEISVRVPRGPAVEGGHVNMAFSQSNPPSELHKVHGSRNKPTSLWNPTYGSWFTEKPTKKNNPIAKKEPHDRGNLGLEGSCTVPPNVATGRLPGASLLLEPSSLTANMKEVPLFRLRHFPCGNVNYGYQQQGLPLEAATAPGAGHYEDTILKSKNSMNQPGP

[22] = target: Wee1-like protein kinase (Homo sapiens, UniProt P30291); experiment: Navigating the Kinome. Panel member name: WEE1

SMILES: Cc1ccc(F)c(NC(=O)Nc2ccc(-c3c(F)ccc4[nH]nc(N)c34)cc2)c1
Ki [1]: 501 nM (active) | Ki [2]: 0.251 nM (active) | Ki [3]: 0.794 nM (active) | Ki [4]: 1580 nM (active) | Ki [5]: 1 nM (active) | Ki [6]: 631 nM (active) | Ki [7]: 501 nM (active) | Ki [8]: 398 nM (active) | Ki [9]: 1.26 nM (active) | Ki [10]: 7.94 nM (active) | Ki [11]: 501 nM (active) | Ki [12]: 1 nM (active)

SMILES: COc1ccc(C(=O)Nc2ccccc2C(=O)O)cc1OC
Ki [13]: 5010 nM (active) | Ki [14]: 2510 nM (active) | Ki [15]: 1580 nM (active) | Ki [16]: 1580 nM (active)

SMILES: N#CC(c1ccccc1)c1c(Br)cnn(Cc2cccc3ccccc23)c1=O (configuration not stated)
IC50 [19]: 116 nM (active) | IC50 [20]: 16400 nM (inactive)

Second part, the compound after the results:

Ki [17]: 2510 nM (active) | Ki [18]: 3160 nM (active)
SMILES: O=C(O)C1CN(Cc2ccc(OCc3cccc(C(F)(F)F)c3)cc2F)C1

Ki [21]: 501 nM (active) | Ki [22]: 7.94 nM (active)
SMILES: CCN1CCN(c2ccc(Nc3ncc(Cl)c(Nc4ccc(O)c(NC(C)=O)c4)n3)cc2)CC1
